Measured values published in patent publication EP2975030B1, “DIHYDROPYRIDAZINE-3,5-DIONE DERIVATIVE” (Chugai Seiyaku Kabushiki Kaisha, priority 2013, dated 2014).

What follows are molecules tested on rat small-intestinal brush border membrane vesicles (assay: Inhibitory effect on 33PO4 uptake into rat small-intestinal brush border membrane vesicles (rapid filtration method)). Conditions: 1 µM test compound; 33PO4 uptake into rat small-intestinal BBMVs, 60 seconds.
Format: biochemical, Wistar female rat
Procedure, shortened: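 33PO4 uptake into rat small-intestinal brush border membrane vesicles measured by rapid filtration. Reactions were stopped with ice-cold buffer (110 mM NaCl, 1 mM KH2PO4, 10 mM HEPES pH 7.5), filtered and washed. Vesicle-associated radioactivity was counted by liquid scintillation.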

| Molecule | Rate of uptake inhibition (%) (1 µM) |
| --- | --- |
| Cc1cccc(CN2C(=O)C(C(=O)Nc3cc(F)c(Br)c(F)c3)=C(O)[C@@]3(C)CCCN23)c1F [Example 195] | 76% |
| COCC(C)(C)N(C)CCOc1ccc(CN2C(=O)C(C(=O)Nc3ccc(C(F)(F)F)cc3-c3cc(C(F)(F)F)ncn3)=C(O)C3(CCCC3)N2C)c(F)c1F [Example 372] | 38% |
| CN1N(Cc2ccc(OCCNC(CC(=O)O)CC(=O)O)c(F)c2F)C(=O)C(C(=O)Nc2ccc(C(F)(F)F)cc2-c2cc(C(F)(F)F)ncn2)=C(O)C12CCCC2 [Example 382, 3-[2-[2,3-Difluoro-4-[[10-hydroxy-6-methyl-8-oxo-9-[[4-(trifluoromethyl)-2-[6-(trifluoromethyl)pyrimidin-4-yl]phenyl]carbamoyl]-6,7-diazaspiro[4.5]dec-9-en-7-yl]methyl]phenoxy]ethylamino]pentanedioate] | 21% |
| C[C@]12CCCN1N(Cc1ccc(C#CCOCCCCO)c(F)c1F)C(=O)C(C(=O)Nc1ccc(C(F)(F)F)cc1-c1ccc(C(F)(F)F)nc1)=C2O [Example 128] | 72% |
| CN1N(Cc2ccc(OCCN3CCN(CCO)CC3)c(F)c2F)C(=O)C(C(=O)Nc2ccc(C(F)(F)F)cc2-c2cc(C(F)(F)F)ncn2)=C(O)C12CCC2 [Example 360] | 21% |
| Cc1c(C#N)ncnc1-c1cc(C(F)(F)F)ccc1NC(=O)C1=C(O)[C@@]2(C)CCCN2N(Cc2cccc(F)c2F)C1=O [Example 24] | 76% |
| CN1N(Cc2ccc(OCCCCCOC[C@H](O)CO)c(F)c2F)C(=O)C(C(=O)Nc2ccc(C(F)(F)F)cc2-c2ccc(C(F)(F)F)nc2)=C(O)C12CCC2 [Example 385] | 39% |
| C[C@]12CCCN1N(Cc1cccc(F)c1F)C(=O)C(C(=O)Nc1ccc(C(F)(F)F)cc1-c1cc(C(F)(F)F)ncn1)=C2O [Example 21, (4aR)-1-[(2,3-Difluorophenyl)methyl]-4-hydroxy-4a-methyl-2-oxo-N-[4-(trifluoromethyl)-2-[6-(trifluoromethyl)pyrimidin-4-yl]phenyl]-6,7-dihydro-5H-pyrrolo[1,2-b]pyridazine-3-carboxamide] | 61% |
| C[C@]12CCCN1N(Cc1ccc(F)c(F)c1)C(=O)C(C(=O)Nc1ccc(C(F)(F)F)cc1-c1cc(C(F)(F)F)ncn1)=C2O [Example 214] | 91% |
| CN1N(Cc2ccc(OCCN3CCN(CCOCCO)CC3)c(F)c2F)C(=O)C(C(=O)Nc2ccc(C(F)(F)F)cc2-c2cc(C(F)(F)F)ncn2)=C(O)C12CCC2 [Example 361] | 20% |
| C[C@]12CCCN1N(Cc1cccc(F)c1F)C(=O)C(C(=O)Nc1ccc(Br)cc1-c1ccc(Cl)nc1)=C2O [Example 122, (4aR)-N-[4-Bromo-2-(6-chloropyridin-3-yl)phenyl]-1-[(2,3-difluorophenyl)methyl]-4-hydroxy-4a-methyl-2-oxo-6,7-dihydro-5H-pyrrolo[1,2-b]pyridazine-3-carboxamide] | 82% |
| COc1cccc(-c2cc(C(F)(F)F)ccc2NC(=O)C2=C(O)[C@@]3(C)CCCN3N(Cc3ccc(CCCOCCOCCOCCO)c(F)c3F)C2=O)c1OC [Example 142] | 76% |
| (4aR)-1-[(3-Fluorophenyl)methyl]-4-hydroxy-4a-methyl-N-[5-methyl-2-(trifluoromethyl)furan-3-yl]-2-oxo-6,7-dihydro-5H-pyrrolo[1,2-b]pyridazine-3-carboxamide [Example 6] | 48% |
| C[C@]12CCCN1N(Cc1c(Cl)cc(OCCN3CCOCC3)cc1Cl)C(=O)C(C(=O)Nc1cnc(C(F)(F)F)nc1-c1ccc(C(F)(F)F)nc1)=C2O.Cl [Example 146, (4aR)-1-[[2,6-Dichloro-4-(2-morpholin-4-ylethoxy)phenyl]methyl]-4-hydroxy-4a-methyl-2-oxo-N-[2-(trifluoromethyl)-4-[6-(trifluoromethyl)pyridin-3-yl]pyrimidin-5-yl]-6,7-dihydro-5H-pyrrolo[1,2-b]pyridazine-3-carboxamide hydrochloride] | 71% |
| COc1ccc(OC)c(CN2C(=O)C(C(=O)Nc3ccc(C(F)(F)F)cc3-c3ccc(C(F)(F)F)nc3)=C(O)[C@@]3(C)CCCN23)c1 [Example 176] | 75% |
| CSc1ncc(-c2cc(C(F)(F)F)ccc2NC(=O)C2=C(O)[C@@]3(C)CCCN3N(Cc3ccc(C#CCCCCC(=O)O)c(F)c3F)C2=O)cn1 [Example 118, 7-[4-[[(4aR)-4-Hydroxy-4a-methyl-3-[[2-(2-methylsulfanylpyrimidin-5-yl)-4-(trifluoromethyl)phenyl]carbamoyl)-2-oxo-6,7-dihydro-5H-pyrrolo[1,2-b]pyridazin-1-yl]methyl]-2,3-difluorophenyl]hept-6-ynoate] | 81% |
| C[C@]12CCCN1N(Cc1c(F)cccc1F)C(=O)C(C(=O)Nc1ccc(C(F)(F)F)cc1-c1cc(C(F)(F)F)ncn1)=C2O [Example 212] | 98% |
| COCCN1CCN(CCOc2ccc(CN3C(=O)C(C(=O)Nc4ccc(C(F)(F)F)cc4-c4cc(C(F)(F)F)ncn4)=C(O)C4(CCCC4)N3C)c(F)c2F)CC1 [Example 377] | 29% |
| CN1N(Cc2ccc(OCCN3[C@@H]4COC[C@H]3C4)c(F)c2F)C(=O)C(C(=O)Nc2ccc(C(F)(F)F)cc2-c2cc(C(F)(F)F)ncn2)=C(O)C12CCC2 [Example 339] | 66% |

| Molecule | Rate of uptake inhibition (%) (1 µM) |
| --- | --- |
| CCN1[C@@H](C(C)(C)C)C(O)=C(C(=O)Nc2ccc(Cl)cc2-c2ccc(C(F)(F)F)nc2)C(=O)N1Cc1cccc(F)c1F [Example 245] | 40% |
| CN1N(Cc2ccc(OCCN3CC(F)(F)C3)c(F)c2F)C(=O)C(C(=O)Nc2ccc(C(F)(F)F)cc2-c2cc(C(F)(F)F)ncn2)=C(O)C12CCCC2 [Example 369] | 43% |
| C[C@]12CCCN1N(Cc1ccc(F)cc1F)C(=O)C(C(=O)Nc1cc(F)c(Br)c(F)c1)=C2O [Example 192] | 88% |
| CC(C)[C@@H]1C(O)=C(C(=O)Nc2ccc(Cl)cc2-c2cc(C(F)(F)F)ncn2)C(=O)N(Cc2cccc(F)c2F)N1C [Example 250] | 52% |
| C[C@]12CCCN1N(Cc1ccc(OCCN3CCOCC3)c(F)c1F)C(=O)C(C(=O)Nc1ccc(Cl)cc1-c1ccc(C(F)(F)F)nc1)=C2O [Example 102] | 65% |
| C[C@H]1COC[C@H](C)N1CCOc1ccc(CN2C(=O)C(C(=O)Nc3ccc(C(F)(F)F)cc3-c3cc(C(F)(F)F)ncn3)=C(O)C3(CCC3)N2C)c(F)c1F [Example 343] | 68% |
| CN1N(Cc2ccc(C#CCN3CCOCC3)c(F)c2F)C(=O)C(C(=O)Nc2ccc(C(F)(F)F)cc2-c2cc(C(F)(F)F)ncn2)=C(O)C1(C)C [Example 315, 2-[[2,3-Difluoro-4-(3-morpholin-4-ylprop-1-ynil)phenyl]methyl]-5-hydroxy-1,6,6-trimethyl-3-oxo-N-[4-(trifluoromethyl)-2-[6-(trifluoromethyl)pyrimidin-4-yl]phenyl]pyridazine-4-carboxamide] | 63% |
| CN1[C@@H](C(C)(C)C)C(O)=C(C(=O)Nc2ccc(Cl)cc2-c2cc(C(F)(F)F)ncn2)C(=O)N1Cc1cccc(F)c1F [Example 237] | 51% |
| CN1N(Cc2cccc(F)c2F)C(=O)C(C(=O)Nc2cc(C(F)(F)F)ccc2-c2ccc(C(F)(F)F)nc2)=C(O)C1(C)C [Example 307] | 41% |
| (4aR)-1-[(2,3-Difluorophenyl)methyl]-4-hydroxy-N-[5-methyl-2-(trifluoromethyl)furan-3-yl]-2-oxo-4a-propyl-6,7-dihydro-5H-pyrrolo[1,2-b]pyridazine-3-carboxamide [Example 12] | 27% |
| CSc1ccc(-c2nc(C(F)(F)F)ccc2NC(=O)C2=C(O)[C@@]3(C)CCCN3N(Cc3cccc(F)c3F)C2=O)cn1 [Example 105] | 72% |
| C[C@]12CCCN1N(Cc1cccc(F)c1Cl)C(=O)C(C(=O)Nc1cc(F)c(Br)c(F)c1)=C2O [Example 174] | 87% |
| COc1cc(-c2cc(C(F)(F)F)ccc2NC(=O)C2=C(O)[C@@]3(C)CCCN3N(Cc3cccc(F)c3F)C2=O)cnc1C#N [Example 114, (4aR)-N-[2-(6-Cyano-5-methoxypyridin-3-yl)-4-(trifluoromethyl)phenyl]-1-[(2,3-difluorophenyl)methyl]-4-hydroxy-4a-methyl-2-oxo-6,7-dihydro-5H-pyrrolo[1,2-b]pyridazine-3-carboxamide] | 86% |
| CC(C)[C@@H]1C(O)=C(C(=O)Nc2ccc(C(F)(F)F)cc2-c2cc(C(F)(F)F)ncn2)C(=O)N(Cc2cccc(F)c2F)N1C [Example 249] | 50% |
| CN1N(Cc2ccc(OCCN3CCN(CCO)CC3)c(F)c2F)C(=O)C(C(=O)Nc2ccc(C(F)(F)F)cc2-c2cc(C(F)(F)F)ncn2)=C(O)C12CCCC2 [Example 376] | 33% |
| Cc1c(Cl)ncnc1-c1cc(C(F)(F)F)ccc1NC(=O)C1=C(O)[C@H](C(C)(C)C)N(C)N(Cc2ccc(OCCN3CCOCC3)c(F)c2F)C1=O [Example 276] | 68% |
| C[C@]12CCCN1N(Cc1c(F)cccc1F)C(=O)C(C(=O)Nc1ccc(C(F)(F)F)cc1-c1ccc(C(F)(F)F)nc1)=C2O [Example 203] | 91% |
| CN1N(Cc2ccc(OCCCC(=O)O)c(F)c2F)C(=O)C(C(=O)Nc2ccc(C(F)(F)F)cc2-c2cc(C(F)(F)F)ncn2)=C(O)C12CCCC2 [Example 332, 4-[2,3-Difluoro-4-[[10-hydroxy-6-methyl-8-oxo-9-[[4-(trifluoromethyl)-2-[6-(trifluoromethyl)pyrimidin-4-yl]phenyl]carbamoyl]-6,7-diazaspiro[4.5]dec-9-en-7-yl]methyl]phenoxy]butanoate] | 3% |
| C[C@]12CCCN1N(Cc1cccc(F)c1F)C(=O)C(C(=O)Nc1ccc(Cl)cc1-c1ccc(C(F)(F)F)nc1)=C2O [Example 86] | 83% |
